Patent US20070060508A1, “Binding molecules” (priority 2002, published 2007)
Ends that are not written are not given here.

Test system: Daudi cells
Assay: Cytotoxicity test: NK effector cells (YT) incubated with tumor target cells (Daudi) plus test peptide, LDH release
Assay type: cell-based
Conditions: YT and Daudi cells 1:10, 16 h
Method: For the cytotoxicity measurement, NK cells, which specifically kill tumor cells, as effector cells were incubated with tumor cells as target cells in the presence of the test peptides. The cytotoxicity measurement was performed by measuring the release of lactate dehydrogenase (LDH) according to the standard protocol by a cytotoxicity test kit (Promega, Germany) and in a microwell plate reader. As NK cells (E), YT cells (DSMZ, Germany) were used. As target cells (T), Daudi cells (DSMZ, Germany) were used. YT and Daudi cells were seeded in microwell plates at a ratio of 1:10 and incubated in the presence of 0.3, 3, 30:M test peptide for 16 h.
On the next day, 10:l of lysis buffer each were added to the cells and the cells were incubated for additional 2 h. Subsequently, 5:l of the agent were transferred into a second microwell plate and combined with 50:l of substrate buffer. After a 30 min incubation, the reaction was terminated by 50:l of stop solution and the absorption of the formed MTT color complex was measured in a microwell plate reader.

Row | Sequence | Cytotoxicity (0.3:M test peptide) [%] | Cytotoxicity (3:M test peptide) [%] | Cytotoxicity (30:M test peptide) [%]
1 | APTSSSTKKTQLQLEHFLLDFQMILNGINN [Sequence 2, APTSSSTKKT QLQLEHFLLD FQMILNGINN] | 30 | 80 | 10
2 | APTSSSTKKTQLQLEHFLMKFQMILNGINN [Sequence 3, APTSSSTKKT QLQLEHFLMK FQMILNGINN] | 0 | 20 | 0
3 | APTSSSTKKTQLQLEHLLLKLQMILNGINN [Sequence 1, APTSSSTKKT QLQLEHLLLK LQMILNGINN] | 30 | 30 | 30
